Data reported in PMC6321136, “Combined In Vitro Studies and in Silico Target Fishing for the Evaluation of the Biological Activities of Diphylleia cymosa and Podophyllum hexandrum” (Molecules, 2018).
≈ marks a conversion by molar mass, not a printed value. Like-named read-outs stand apart in the source and are kept apart here.

Legend:
[1] = Thiobarbituric acid reactive substances (TBARS) assay; parameters: species or system bovine
Description: The evaluation of antioxidant activity using the TBARS assay, with adaptations. Briefly, the samples were solubilized in methanol (50.0 to 31.25 μg/mL) and a portion of 25 μL of each extract solution was added to 10 mL test tubes in triplicate (two reaction tubes and one control). The tubes corresponding to the blank, negative and positive controls were prepared by adding 25 μL of deionized water, MeOH or propylgalate (Sigma, St. Louis, MO, USA, 0.1 mM), respectively. The phospholipid liposomes were prepared using bovine brain extract type VII (Sigma Aldrich, St. Louis, MO, USA, 10 mg/mL) in phosphate buffered saline (PBS) solution. The suspension was subjected to an ultrasonic bath until the formation of the liposomes. […] The butanolic phase was removed and transferred to a 96-well microplate, and the absorbance was recorded on a Multiskan Go microplate reader (Thermo Scientific, Whaltham, MA, USA) at 532 nm. The percentage of inhibition (%I) of lipid peroxidation was calculated as: %I = ((AC − AS)/AC) × 100 where AC is the absorbance of control, AS is the absorbance of samples. Assays were performed in triplicate and IC50 values were determined by non-linear regression using GraphPad Prism, version 6.0 (GraphPad Software, San Diego, CA, USA). […]

[2] = test system: Antagonist, androgen receptor (AR); parameters: method as in PubChem Bioassay AID 743042; conditions: ref PubChem Bioassay AID 743042; cited from earlier work
[3] = test system: Antagonist, androgen receptor (AR); parameters: method as in PubChem Bioassay AID 1259243; conditions: ref PubChem Bioassay AID 1259243; cited from earlier work
[4] = test system: Cytotoxicity, Agonist, nuclear factor kappa B subunit 1; parameters: method as in PubChem Bioassay AID 1159515; conditions: ref PubChem Bioassay AID 1159515; cited from earlier work
Angiogenesis model = test system: Angiogenesis model; parameters: method as in PubChem Bioassay AID 575; conditions: ref PubChem Bioassay AID 575; cited from earlier work
Anti-Inflammatory model = test system: Anti-Inflammatory model; parameters: method as in PubChem Bioassay AID 489033; conditions: ref PubChem Bioassay AID 489033; cited from earlier work
[5] = test system: Cell Cycle Modulation (counterscreen); parameters: method as in PubChem Bioassay AID 1117349; conditions: ref PubChem Bioassay AID 1117349; cited from earlier work
[6] = test system: Cytotoxicity, Agonist, Histone H2A.x; parameters: method as in PubChem Bioassay AID 1224847; conditions: ref PubChem Bioassay AID 1224847; cited from earlier work
Agonist, p53 = test system: Agonist, p53; parameters: method as in PubChem Bioassay AID 720552; conditions: ref PubChem Bioassay AID 720552; cited from earlier work
Anticancer, Lung Tumor = test system: Anticancer, Lung Tumor; parameters: method as in PubChem Bioassay AID 270; conditions: ref PubChem Bioassay AID 270; cited from earlier work
[7] = Cytotoxicity in THP-1 cells, SRB method; format: cell-based; conditions: human, THP-1 cells (PMA-treated, adherent)
Description: The assay was performed following the sulforhodamine B (SRB) method. THP-1 cells (acute human monocytic leukemia cells, ATCC TIB-202) were cultured in a RPMI medium supplemented with 10% fetal bovine serum. A cell suspension was prepared at the density of 1 × 10^6 cells/mL with 2 μL of PMA (phorbol myristyl acetate, Sigma, St. Louis, MO, USA, 30 µg/mL). A portion of 100 μL of this suspension was transferred to the wells of a microplate. The plate was incubated at 37 °C, in a 5% CO2 atmosphere, for about 12 to 16 h to allow cells to adhere. After that, 100 μL of each sample (400, 200, 100, 50 and 25 μg/mL) were added to the wells. The plate was then incubated at 37 °C for 18 h. After incubation, 100 μL of cold trichloroacetic acid (TCA, 10%) solution was added in each well. The plate was incubated at 4 °C for 1 h. The supernatant was discarded and the wells were washed three times with 200 μL of distilled water. Then, the wells were allowed to dry for 24 h. […] The plate was then stirred for 5 min inside the microplate reader. The optical density was measured at 510 nm in a microplate reader. […] Cell viability was calculated according to the formula (A − B/C − B) × 100, where A, B and C corresponds to the absorbance measured for the samples, blank and negative control, respectively. […]

Anticancer, Yes1 kinase = test system: Anticancer, Yes1 kinase; parameters: method as in PubChem Bioassay AID 686947; conditions: ref PubChem Bioassay AID 686947; cited from earlier work
[8] = test system: Agonist, androgen receptor (AR); parameters: method as in PubChem Bioassay AID 743040; conditions: ref PubChem Bioassay AID 743040; cited from earlier work
THP-1 cells = THP-1 cells at 10 µM; ref [69]; cited from earlier work

COc1cc([C@@H]2c3cc4c(cc3[C@H](O)[C@H]3COC(=O)[C@H]23)OCO4)cc(OC)c1OC [Podophyllotoxin, podophyllotoxin]
Antioxidant Activity (IC50-µg/mL) TBARS Assay [1]: >50 µg/mL
Exper. Activity [2]: Inactive
Exper. Activity [3]: Inactive
Exper. Activity [4]: Inactive
Exper. Activity (Angiogenesis model): Inactive
Exper. Activity (Anti-Inflammatory model): Inactive
Exper. Activity [5]: Active
Exper. Activity [6]: Inactive
Exper. Activity (Agonist, p53): Inactive
Exper. Activity (Anticancer, Lung Tumor): Inactive
CC50 at 18 h [7]: 400 ± 10.3 µg/mL (≈ 965 µM)
Exper. Activity (Anticancer, Yes1 kinase): Inactive
Exper. Activity [8]: Inactive
cytotoxicity (THP-1 cells): no cytotoxicity was observed
